The source of these data is US20240009174A1, “METHODS FOR DISRUPTING MITOCHONDRIAL UNFOLDED PROTEIN RESPONSE” (Health Research, Inc., priority 2020, published 2024).

Type in all cases: cell-based
Test [1] has as its system mitochondrial chaperonin activity in PCa cells. Put plainly: Mitochondrial Chaperonin Activity Assay (MiCAA). The conditions noted are these: 24 h. The procedure:
FIG. 10. Mitochondrial Chaperonin Activity Assay (MiCAA). PCa cells were treated with either DCEM1 (A) or ETB or Mizoribine (B) for 24 h and mitochondrial (Mito) chaperonin activity was analyzed as described in material and methods. In another experiment, PCa cells were transfected with siRNA to target HSP60 mRNA and mitochondrial chaperonin activity was analyzed (C). In (A), the bars in each series from left to right are DMSO and DCEM1. In (B), the bars in each series from left to right are DMSO, ETB, and MZR. In (C), the bars in each series from left to right are siMock, siHSP60-1, and siHSP60-2.
Since HSP60 chaperonin system is crucial for maintaining mitochondrial homeostasis in normal cells, a novel method, Mitochondrial Chaperonin Activity Assay (MiCAA), was developed to analyze chaperonin activity in live cells using flow cytometry to evaluate whether DCEM1 modulates mitochondrial chaperonin activity.

In test [2] the test system is LNCaP and PC-3 cells. Put plainly: mtDNA damage analysis. The following applies: 24 hours. The procedure: FIG. 6. Pharmacological inhibition of HSP60-ClpP interaction induces UPR^mt and PCa cell death. (A) Docking of DCEM1 into apical domain of HSP60. (B) LNCaP and PC-3 cells were treated with DCEM1 for 24 hours and HSP60-ClpP interaction was analyzed by co-immunoprecipitation assay. (C) LNCaP and PC-3 cells were treated with DCEM1 for 24 hours and mitoROS levels were analyzed by flow cytometry using mitoSOX dye. (D) LNCaP and PC-3 cells were treated with DCEM1 for 24 hours and poly-Ub protein levels were analyzed by western blotting. (E) LNCaP and PC-3 cells were treated with DCEM1 for 24 and 48 hours and apoptotic cell populations were analyzed by flow cytometry using Annexin V FITC/PI method as explained in materials and methods. In (E) top panel, the bars in each series from left to right are control, 5, 10, and 20, and in (E) bottom panel, the bars in each series from left to right are DMSO, 5, 10, and 20. (F) LNCaP and PC-3 cells were treated with DCEM1 for 24 and 48 hours and lysates were prepared and analyzed for DEVDase activity using specific peptide substrate. […] (G) LNCaP and PC-3 cells were pre-treated with SKQ1 followed by DCEM1 treatment and analyzed for cell viability by MTT assay. (H) LNCaP and PC-3 cells were treated with either DCEM1 or H2O2 (200 μM) for 24 hours and total DNA were isolated and analyzed for mtDNA damage as described in materials and methods. […]

The subject of another test is PCa cells. The test can be described thus: Colony forming ability of PCa cells. The following applies: data not shown. The protocol:
Identification of novel inhibitor of HSP60-ClpP interaction that disrupts UPR^mt function and induces PCa cell death. Having shown that two arms of UPR^mt, HSP60 chaperonin and ClpP protease interact and play critical role in PCa cell survival, an in silico analysis was performed and a small molecule library (developed by Enamine Ltd) was screened to identify drugs targeting the apical domain of HSP60 critical for its interaction with ClpP. 9 compounds (A-I) were identified and screened for their cell death inducing potential in PCa cells (data not shown). […] Colony forming ability of PCa cells was inhibited by DCEM1 treatment (data not shown).

The subject of test [3] is LNCaP and PC-3 cells. The test can be described thus: Cellular ATP level. The procedure:
(§1) FIG. 7. Pharmacological inhibition of HSP60-ClpP interaction induces metabolic stress in PCa cells. (A) LNCaP and PC-3 cells were pre-treated with either rotenone or antimycin-A followed by DCEM1 treatment and mitochondrial ROS was analyzed as described in material and methods (data represented as fold change compared to control). In (A), the bars in each series from left to right are control, DCEM1, Rot+DCEM1, Anti A+DCEM1, Rot, and Anti A (B) ClpP protein was over-expressed in LNCaP and PC-3 cells followed by DCEM1 treatment and mitochondrial ROS was analyzed as described in material and methods (Data represented as fold change compared to control). […] (C) ClpP protein was over-expressed in LNCaP and PC-3 cells followed by DCEM1 treatment and level of poly-ubiquitinated protein was analyzed by western blotting. (D) ClpP protein was over-expressed in LNCaP and PC-3 cells followed by DCEM1 treatment and DEVDase activity was analyzed as described in material and methods (Data represented as fold change compared to control). […] (E) Mitochondrial membrane potential (mitoMP) was analyzed in LNCaP and PC-3 cells treated with DCEM1 as described in material and methods (Data represented as fold change compared to control). […] (F) ATP level was analyzed in LNCaP and PC-3 cells treated with DCEM1 as described in material and methods (Data represented as fold change compared to control). […]

For test [4], the system named is LNCaP and PC-3 cells. Put plainly: Mitochondrial membrane potential (mitoMP). The protocol:
as §1

Consider `CCOc1cc(CNCc2nc3ccccc3[nH]2)ccc1OCc1cccs1` [DCEM1], for which the mitochondrial chaperonin activity entry in test [1] is listed as “did not modulate”. Further, the mtDNA damage entry with LNCaP and PC-3 cells [2] is on record as “Severe mtDNA damage”. In addition, the “colony forming ability of PCa cells” value with PCa cells is reported as “inhibited”. Moreover, the “cellular ATP” value with LNCaP and PC-3 cells [3] is “reduction of cellular ATP”. Moreover, in the test on LNCaP and PC-3 cells [4], the mitochondrial membrane potential result is on record as “robustly depolarized mitochondrial membrane”.
